Measurements published in patent US7030257B2, “Metallocenes and processes for their preparation” (Agency for Science, Technology and Research, priority 2004, dated 2006).

Tested on: double-stranded DNA
Assay: Competition experiment against ethidium bromide (EB) for binding to EB-saturated double-stranded DNA, gel electrophoresis fluorescence readout
Source text: A competition experiment was designed to obtain an estimate of the nucleic acid intercalating property of the compound of the invention. The basis of this methodology involves the use of two intercalators, one fluorescent and one non-fluorescent. The fluorescent intercalator first saturates the double-stranded DNA. Then a second intercalator, in this case VFcTMEDA, is introduced into the system with gradual increasing concentration. […] For the competition experiment, the changes in fluorescent intensity were monitored during the displacement of DNA-bound fluorescent molecules by VFcTMEDA through an increasing concentration of the VFcTMEDA molecules in the system. A well-known threading intercalator, ethidium bromide (EB), was chosen as our fluorescent indicator.
Subsequently, VFcTMEDA was studied with respect to its ability to compete against EB for binding to DNA using the same approach. Different amounts of VFcTMEDA were mixed with the EB saturated double-stranded DNA to examine the bind ability. […] Lanes 1 to 5 correspond to different ratios of VFcTMEDA/EB.

## vinylferrocene tetramethylethylenediamine [VFcTMEDA]
Kd of VFcTMEDA relative to EB
  enhancement of binding constant over EB: ~26 fold
VFcTMEDA/EB molecular ratio 1/5 (second lane)
  DNA-bound EB replaced: more than 50%
